Molecules are shown by their SMILES. The source made the active and inactive calls. The calls are words filed in the database; no cut-off is given here.

The subject of data set [1] is HUVEC. Briefly: Antiapoptotic activity against low density lipoprotein-induced vascular apoptosis in HUVEC cells assessed as translocation of NF-kappaB across the nucleus by lase scanning confocal microscope. In kind it is functional, cell-based. The conditions noted are these: Homo sapiens.
The test system of data set [2] is HUVEC. Briefly: Antiapoptotic activity against low density lipoprotein-induced vascular apoptosis in HUVEC cells assessed as inhibition of ROS by lase scanning confocal microscope. In kind it is functional, cell-based. The settings on record: Homo sapiens.
For data set [3], the system named is HUVEC. Briefly: Antiapoptotic activity against low density lipoprotein-induced apoptosis in HUVEC cells assessed as nuclear condensation after 24 hrs by acridin orange staining. The data set is classed as functional, cell-based. The settings on record: Homo sapiens.
Data set [4] deals with HUVEC. Briefly: Antiapoptotic activity against low density lipoprotein-induced vascular apoptosis in HUVEC cells assessed as modulation of P53 level by lase scanning confocal microscope. The data set is classed as functional, cell-based. The conditions noted are these: Homo sapiens.
The test system of data set [5] is HUVEC. Briefly: Antiapoptotic activity against low density lipoprotein-induced apoptosis in HUVEC cells assessed as nuclear fragmentation after 24 hrs by acridin orange staining. The data set is classed as functional, cell-based. The conditions noted are these: Homo sapiens.
Data set [6] concerns HUVEC. The data set can be described thus: Cytotoxicity against HUVEC cells assessed as reduction in low density lipoprotein-induced cell viability at 50 uM by MTT assay. In kind it is cell-based. The conditions noted are these: human. A general note: Tetrazolium assays rely on reduction of a dye to a coloured formazan, in cell work by metabolically active cells.
The test system of data set [7] is HUVEC. The data set can be described thus: Antiapoptotic activity against low density lipoprotein-induced apoptosis in HUVEC cells by Hoechst 33258 staining. In kind it is functional, cell-based. The settings on record: Homo sapiens.
Data set [8] relates to HUVEC. The data set can be described thus: Antiapoptotic activity against low density lipoprotein-induced apoptosis in HUVEC cells assessed as inhibition of integrin beta4 level at 50 uM by immunofluorescence technique. The data set is classed as functional, cell-based. The settings on record: Homo sapiens.
Data set [9] deals with HUVEC. Briefly: Antiapoptotic activity against low density lipoprotein-induced apoptosis in HUVEC cells assessed as apoptotic cell after 24 hrs by TUNEL assay. The data set is classed as functional, cell-based. The conditions noted are these: Homo sapiens.
The subject of data set [10] is HUVEC. Briefly: Antiapoptotic activity against low density lipoprotein-induced vascular apoptosis in HUVEC cells assessed as modulation of NF-kappaB level by lase scanning confocal microscope. The data set is classed as functional, cell-based. The conditions noted are these: Homo sapiens.

On to `Nc1ccc2c(c1)NC(CO)CO2` (stereo not given), for which the result with HUVEC [1], in the data set with HUVEC [2], in the data set with HUVEC [3], with HUVEC [4], in the data set with HUVEC [5] and with HUVEC [8] was Active. In addition, the result in the data set with HUVEC [9] and in the data set on HUVEC [10] was Active. The Activity result is “Toxic” in the data set with HUVEC [6] and “Dose-dependent effect” with HUVEC [7].

The values above are taken from ChEMBL document CHEMBL1152912, “Protective effects of a benzoxazine derivative against oxidized LDL-induced apoptosis and the increases of integrin beta4, ROS, NF-kappaB and P53 in human umbilical vein endothelial cells” (Bioorg Med Chem Lett, 2009).
